Common to all, as to test: SILAC proteomics / in-gel fluorescence, competition of probe 13-t labeling by 3a
Assay [1] has as its target proteins of HEK293T cells transiently overexpressing caspase-6 (Homo sapiens, UniProt P62701). The conditions noted are these: Comp; protein RPS4X P62701.
Assay [2] concerns the target proteins of HEK293T cells transiently overexpressing caspase-6 (Homo sapiens, UniProt P46777). To be noted: Comp; protein RPL5 P46777.
The target in assay [3] is proteins of HEK293T cells transiently overexpressing caspase-6 (Homo sapiens, UniProt P40938). The conditions noted are these: Comp; protein RFC3 P40938.
Assay [4] has as its target T1, proteins of HEK293T cells transiently overexpressing caspase-6 (Homo sapiens, UniProt P30084).
T1 sequence (P30084 28-290): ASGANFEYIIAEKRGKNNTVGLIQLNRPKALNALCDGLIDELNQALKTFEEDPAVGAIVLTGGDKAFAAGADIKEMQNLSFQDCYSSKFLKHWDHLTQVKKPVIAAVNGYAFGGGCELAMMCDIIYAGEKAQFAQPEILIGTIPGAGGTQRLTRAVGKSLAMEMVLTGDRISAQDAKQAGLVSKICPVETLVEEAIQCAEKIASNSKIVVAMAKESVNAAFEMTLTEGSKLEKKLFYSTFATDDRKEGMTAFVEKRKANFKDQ

The target in assay [5] is proteins of HEK293T cells transiently overexpressing caspase-6 (Homo sapiens, UniProt Q9NR30). To be noted: Comp; protein DDX21 Q9NR30.
In assay [6] the target is proteins of HEK293T cells transiently overexpressing caspase-6 (Homo sapiens, UniProt P13667). The conditions noted are these: Comp; protein PDIA4 P13667.
For assay [7], the target named is proteins of HEK293T cells transiently overexpressing caspase-6 (Homo sapiens, UniProt P26641). To be noted: Comp; protein EEF1G P26641.
The target in assay [8] is proteins of HEK293T cells transiently overexpressing caspase-6 (Homo sapiens, UniProt P38606). To be noted: Comp; protein ATP6V1A P38606.
Assay [9] concerns the target proteins of HEK293T cells transiently overexpressing caspase-6 (Homo sapiens, UniProt P62753). The conditions noted are these: Comp; protein RPS6 P62753.
The target in assay [10] is proteins of HEK293T cells transiently overexpressing caspase-6 (Homo sapiens, UniProt P46779). To be noted: Comp; protein RPL28 P46779.
The target in assay [11] is proteins of HEK293T cells transiently overexpressing caspase-6 (Homo sapiens, UniProt Q15185). To be noted: Comp; protein PTGES3 Q15185.
Assay [12] has as its target proteins of HEK293T cells transiently overexpressing caspase-6 (Homo sapiens, UniProt P36405).
Assay [13] has as its target T2, proteins of HEK293T cells transiently overexpressing caspase-6 (Homo sapiens, UniProt P12236).
T2 sequence (P12236 1-298): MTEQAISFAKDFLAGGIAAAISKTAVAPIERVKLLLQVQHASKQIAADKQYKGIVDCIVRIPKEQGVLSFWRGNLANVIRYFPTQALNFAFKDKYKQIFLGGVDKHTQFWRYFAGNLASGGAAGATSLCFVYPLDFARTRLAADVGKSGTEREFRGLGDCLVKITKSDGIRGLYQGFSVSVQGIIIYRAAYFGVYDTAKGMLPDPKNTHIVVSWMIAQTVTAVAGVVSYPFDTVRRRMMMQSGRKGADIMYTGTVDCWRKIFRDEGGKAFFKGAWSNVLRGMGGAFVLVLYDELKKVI

Assay [14] concerns the target proteins of HEK293T cells transiently overexpressing caspase-6 (Homo sapiens, UniProt Q9Y230). The conditions noted are these: Comp; protein RUVBL2 Q9Y230.
Assay [15] deals with proteins of HEK293T cells transiently overexpressing caspase-6 (Homo sapiens, UniProt P40939). To be noted: Comp; protein HADHA P40939.
Where [16] appears, read: protein ECHS1 (P30084), Exp Comp, analysis C6, p 0.1250, 5 peptides.
[17] abbreviates: protein ARL3 (P36405), Exp Comp, analysis C6, p 0.1250, 5 peptides.
[18] abbreviates: protein SLC25A6 (P12236), Exp Comp, analysis C6, p 0.5000, 2 peptides.

In publication PMC10176470, “Engaging a Non-catalytic Cysteine Residue Drives Potent and Selective Inhibition of Caspase-6” (Journal of the American Chemical Society, 2023) one finds enrich.exp.med, enrich.exp.med.lin and enrich.exp.med.log2 data, which are given here for one compound.

Sequence of proteins of HEK293T cells transiently overexpressing caspase-6 (Homo sapiens, UniProt P36405) (P36405 whole entry): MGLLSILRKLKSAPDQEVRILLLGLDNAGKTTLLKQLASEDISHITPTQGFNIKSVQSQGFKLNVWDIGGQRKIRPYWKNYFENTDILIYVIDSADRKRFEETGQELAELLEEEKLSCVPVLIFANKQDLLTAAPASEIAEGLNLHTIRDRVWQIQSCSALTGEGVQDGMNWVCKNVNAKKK
Sequence of proteins of HEK293T cells transiently overexpressing caspase-6 (Homo sapiens, UniProt Q9NR30) (Q9NR30 whole entry): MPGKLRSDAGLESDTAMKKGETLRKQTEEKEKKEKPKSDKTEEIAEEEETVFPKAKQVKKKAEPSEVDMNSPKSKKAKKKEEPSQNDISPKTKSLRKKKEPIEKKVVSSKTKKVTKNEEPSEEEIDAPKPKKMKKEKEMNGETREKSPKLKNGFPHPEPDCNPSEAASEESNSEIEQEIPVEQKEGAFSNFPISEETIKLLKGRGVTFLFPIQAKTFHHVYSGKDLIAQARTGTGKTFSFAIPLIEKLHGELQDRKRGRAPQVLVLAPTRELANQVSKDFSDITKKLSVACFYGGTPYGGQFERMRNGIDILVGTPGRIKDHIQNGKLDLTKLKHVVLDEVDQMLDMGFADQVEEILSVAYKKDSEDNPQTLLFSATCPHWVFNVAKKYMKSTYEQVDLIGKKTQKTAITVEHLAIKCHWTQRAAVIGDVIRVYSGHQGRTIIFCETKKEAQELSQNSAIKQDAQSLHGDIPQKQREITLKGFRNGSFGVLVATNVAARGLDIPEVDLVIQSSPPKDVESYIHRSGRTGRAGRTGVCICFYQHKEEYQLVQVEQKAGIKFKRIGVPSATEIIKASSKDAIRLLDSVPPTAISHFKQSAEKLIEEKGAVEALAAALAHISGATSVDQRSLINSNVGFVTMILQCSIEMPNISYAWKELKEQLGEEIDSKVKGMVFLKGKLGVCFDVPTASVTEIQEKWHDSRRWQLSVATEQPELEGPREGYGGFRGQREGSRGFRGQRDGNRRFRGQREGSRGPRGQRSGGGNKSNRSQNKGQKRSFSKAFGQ
Sequence of proteins of HEK293T cells transiently overexpressing caspase-6 (Homo sapiens, UniProt Q9Y230) (Q9Y230 whole entry): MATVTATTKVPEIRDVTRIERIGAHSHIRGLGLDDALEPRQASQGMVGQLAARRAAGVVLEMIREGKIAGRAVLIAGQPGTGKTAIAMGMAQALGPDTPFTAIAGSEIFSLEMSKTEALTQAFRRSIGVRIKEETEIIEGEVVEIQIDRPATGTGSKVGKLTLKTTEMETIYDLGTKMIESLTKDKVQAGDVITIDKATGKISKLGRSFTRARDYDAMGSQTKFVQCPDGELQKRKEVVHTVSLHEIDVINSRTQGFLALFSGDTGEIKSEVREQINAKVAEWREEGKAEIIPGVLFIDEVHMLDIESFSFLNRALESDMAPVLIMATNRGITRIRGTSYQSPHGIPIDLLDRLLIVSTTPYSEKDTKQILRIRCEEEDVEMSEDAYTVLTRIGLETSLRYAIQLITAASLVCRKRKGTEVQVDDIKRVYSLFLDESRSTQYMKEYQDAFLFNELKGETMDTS
Sequence of proteins of HEK293T cells transiently overexpressing caspase-6 (Homo sapiens, UniProt P40938) (P40938 whole entry): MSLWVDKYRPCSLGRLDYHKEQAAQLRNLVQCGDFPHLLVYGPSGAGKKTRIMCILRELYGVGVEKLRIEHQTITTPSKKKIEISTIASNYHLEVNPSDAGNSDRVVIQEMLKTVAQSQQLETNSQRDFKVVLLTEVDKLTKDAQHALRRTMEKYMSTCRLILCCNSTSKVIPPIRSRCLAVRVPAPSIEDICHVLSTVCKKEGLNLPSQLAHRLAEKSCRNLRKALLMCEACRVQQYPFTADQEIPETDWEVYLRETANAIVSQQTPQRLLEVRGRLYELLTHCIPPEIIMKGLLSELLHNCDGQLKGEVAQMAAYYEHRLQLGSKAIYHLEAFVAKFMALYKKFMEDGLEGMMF
Sequence of proteins of HEK293T cells transiently overexpressing caspase-6 (Homo sapiens, UniProt P13667) (P13667 21-645): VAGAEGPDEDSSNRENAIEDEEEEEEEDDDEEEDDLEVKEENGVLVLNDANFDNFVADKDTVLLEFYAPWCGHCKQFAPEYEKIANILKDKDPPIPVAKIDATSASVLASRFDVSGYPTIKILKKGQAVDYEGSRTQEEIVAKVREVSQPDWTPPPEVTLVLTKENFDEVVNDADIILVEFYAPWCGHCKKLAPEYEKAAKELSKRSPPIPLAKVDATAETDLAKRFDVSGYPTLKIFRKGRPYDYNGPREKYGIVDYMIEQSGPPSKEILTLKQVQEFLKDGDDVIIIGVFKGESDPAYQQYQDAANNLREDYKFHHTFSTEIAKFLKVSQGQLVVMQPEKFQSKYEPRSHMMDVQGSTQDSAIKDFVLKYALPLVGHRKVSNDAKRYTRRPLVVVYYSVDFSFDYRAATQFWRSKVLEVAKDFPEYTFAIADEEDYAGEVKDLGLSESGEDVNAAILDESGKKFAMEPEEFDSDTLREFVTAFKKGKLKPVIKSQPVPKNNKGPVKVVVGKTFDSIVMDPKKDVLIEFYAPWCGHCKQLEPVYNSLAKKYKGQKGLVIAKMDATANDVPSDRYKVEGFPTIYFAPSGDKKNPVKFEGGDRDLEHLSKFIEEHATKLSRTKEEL
Sequence of proteins of HEK293T cells transiently overexpressing caspase-6 (Homo sapiens, UniProt P26641) (P26641 whole entry): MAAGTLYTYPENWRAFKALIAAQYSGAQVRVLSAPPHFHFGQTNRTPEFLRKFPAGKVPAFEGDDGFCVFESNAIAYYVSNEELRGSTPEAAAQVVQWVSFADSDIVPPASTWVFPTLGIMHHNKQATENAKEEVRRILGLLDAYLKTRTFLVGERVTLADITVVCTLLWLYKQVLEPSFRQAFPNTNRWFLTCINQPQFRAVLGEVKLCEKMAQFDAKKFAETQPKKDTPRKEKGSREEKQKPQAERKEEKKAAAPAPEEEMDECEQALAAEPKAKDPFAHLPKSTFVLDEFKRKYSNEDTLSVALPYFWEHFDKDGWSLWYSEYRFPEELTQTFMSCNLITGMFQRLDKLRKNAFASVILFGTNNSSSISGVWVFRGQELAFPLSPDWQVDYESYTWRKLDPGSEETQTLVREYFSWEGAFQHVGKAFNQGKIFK
Sequence of proteins of HEK293T cells transiently overexpressing caspase-6 (Homo sapiens, UniProt Q15185) (Q15185 whole entry): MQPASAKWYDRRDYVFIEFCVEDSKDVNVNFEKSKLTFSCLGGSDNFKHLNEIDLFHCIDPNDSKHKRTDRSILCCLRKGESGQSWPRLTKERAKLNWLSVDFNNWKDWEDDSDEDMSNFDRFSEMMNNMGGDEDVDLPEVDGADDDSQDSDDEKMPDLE
Sequence of proteins of HEK293T cells transiently overexpressing caspase-6 (Homo sapiens, UniProt P40939) (P40939 37-763): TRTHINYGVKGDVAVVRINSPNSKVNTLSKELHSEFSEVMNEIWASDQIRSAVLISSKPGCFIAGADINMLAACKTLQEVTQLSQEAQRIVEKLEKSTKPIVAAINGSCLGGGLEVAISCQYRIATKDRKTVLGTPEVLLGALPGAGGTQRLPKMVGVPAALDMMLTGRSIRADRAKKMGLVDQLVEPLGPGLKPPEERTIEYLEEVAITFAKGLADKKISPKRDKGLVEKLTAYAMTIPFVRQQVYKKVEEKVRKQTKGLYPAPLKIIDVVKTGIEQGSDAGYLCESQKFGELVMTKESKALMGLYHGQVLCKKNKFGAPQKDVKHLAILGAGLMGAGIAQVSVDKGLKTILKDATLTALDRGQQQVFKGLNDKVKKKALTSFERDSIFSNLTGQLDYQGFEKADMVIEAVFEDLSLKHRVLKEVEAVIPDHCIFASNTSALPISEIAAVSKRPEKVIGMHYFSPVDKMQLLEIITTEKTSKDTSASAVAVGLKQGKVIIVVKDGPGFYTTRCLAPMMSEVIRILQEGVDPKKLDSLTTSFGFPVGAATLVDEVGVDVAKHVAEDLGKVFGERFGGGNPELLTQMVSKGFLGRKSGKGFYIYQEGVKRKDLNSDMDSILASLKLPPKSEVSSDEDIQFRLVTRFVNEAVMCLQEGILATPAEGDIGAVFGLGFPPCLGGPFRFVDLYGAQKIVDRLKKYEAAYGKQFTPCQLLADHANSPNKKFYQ
Sequence of proteins of HEK293T cells transiently overexpressing caspase-6 (Homo sapiens, UniProt P38606) (P38606 whole entry): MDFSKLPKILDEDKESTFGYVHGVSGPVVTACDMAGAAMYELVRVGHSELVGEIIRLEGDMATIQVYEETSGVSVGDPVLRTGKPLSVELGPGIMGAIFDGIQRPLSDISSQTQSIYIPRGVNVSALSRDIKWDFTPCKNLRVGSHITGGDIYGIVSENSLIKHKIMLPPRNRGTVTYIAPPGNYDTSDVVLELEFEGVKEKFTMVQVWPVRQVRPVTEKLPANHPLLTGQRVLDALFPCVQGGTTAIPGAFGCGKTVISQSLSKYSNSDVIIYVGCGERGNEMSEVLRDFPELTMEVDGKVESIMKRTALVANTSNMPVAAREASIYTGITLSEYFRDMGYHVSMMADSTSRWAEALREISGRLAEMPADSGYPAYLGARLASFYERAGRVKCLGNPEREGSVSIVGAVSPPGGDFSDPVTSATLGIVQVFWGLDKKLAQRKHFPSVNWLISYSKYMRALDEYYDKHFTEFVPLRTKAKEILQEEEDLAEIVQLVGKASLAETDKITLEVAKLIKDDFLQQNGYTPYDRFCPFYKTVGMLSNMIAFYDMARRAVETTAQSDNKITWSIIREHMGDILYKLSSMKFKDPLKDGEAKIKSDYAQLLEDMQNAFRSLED

As to `C=CS(=O)(=O)N1C[C@H](C(=O)Nc2ccc(OC(F)(F)F)cc2)C[C@@H](c2ccccc2)C1` [3a], the enrich.exp.med in assay [1] is given as 0.5823; in assay [2] it was 0.7402; in [3], 0.6326; in assay [4] (Comp, protein ECHS1 P30084), 2.261; in [5] it was 0.6506; in assay [6], 0.6419. In addition, the enrich.exp.med was 0.7548 in assay [7]; 0.8033 in assay [8]; 0.7055 in assay [9]; 0.6162 in [10]; 0.8422 in assay [11]; 1.0898 in assay [12] (Comp, protein ARL3 P36405). Moreover, the enrich.exp.med came out at 3.139 in assay [13] (Comp, protein SLC25A6 P12236); 0.7589 in [14]; 0.6753 in assay [15]. Besides, the enrich.exp.med.lin in [4] (setting [16]) stood at 4.794; in assay [12] (setting [17]) it was 2.128; in assay [13] (setting [18]), 8.81. The enrich.exp.med.log2 in [4] (setting [16]) came to 2.261; in assay [12] (setting [17]), 1.0898; in assay [13] (setting [18]), 3.139.
